For orientation: IC50 means the midpoint of a concentration-inhibition curve.

The text below walks through data of US11236059B2, “Targeted cytotoxic ratjadone derivatives and conjugates thereof” (HELMHOLTZ-ZENTRUM FUER INFEKTIONSFORSCHUNG GMBH, priority 2017, dated 2022).

Where two headings read alike, the source gives them in different places.

Assay [1] deals with KB 3.1 (DSMZ ACC 158) cells. The conditions noted are these: read-out: IC50 [nM] KB-3.1; growth inhibition, 5 days of incubation, MTT assay. Background: Formazan colour is commonly taken as a measure of viable cells.
A further assay addresses T1, CRM1 (Homo sapiens, UniProt O14980).
T1 construct: HeLa cells stably expressing a fluorescent translocation biosensor (HeLaRevBio); endogenous in cells; host or cells: HeLa (HeLaRevBio in A7; HeLa in A8)
Nature of the assay: Monitoring export inhibitory activity (translocation biosensor, HeLaRevBio cells). Format: cell-based. The method, boiled down:
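HeLa cells stably expressing an NLS-GST-GFP-RevNES shuttle biosensor were treated with compound for 1 h, then fixed and Hoechst-stained. GFP intensity in nuclear and cytoplasmic regions was quantified by high-content imaging, and the inner-minus-outer mean intensity difference was the readout. IC50 came from four-parameter logistic fit; single-point testing used 125 nM final.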

In a further assay the test system is L-929 (DSMZ ACC 2) cells. Nature of the assay: Cell proliferation assay (MTT), L-929. Format: cell-based. The conditions noted are these: growth inhibition, 5 days of incubation, MTT assay; read-out: IC50 [nM] L-929. As for the experimental part:
(§1) 60 μL of serial dilutions of the test compound were given to 120 μL of suspended cells (50.000/mL) in wells of 96-well plates. After 5 days of incubation growth inhibition (IC50) was determined using an MTT assay.^[64]

For assay [2], the system named is A549 (DSMZ ACC 107) cells. Put plainly: cells. The class given is cell-based. As to conditions: growth inhibition, 5 days of incubation, MTT assay; read-out: IC50 [nM] A-549. The method, then: as §1
For assay [3], the system named is SKOV-3 (DSMZ ATCC HTB 77) cells. Nature of the assay: cells. The class given is cell-based. The conditions noted are these: growth inhibition, 5 days of incubation, MTT assay; read-out: IC50 [nM] SK-OV-3. The method, then: as §1
For assay [4], the system named is MCF-7 (DSMZ ACC 115) cells. Nature of the assay: cells. Format: cell-based. As to conditions: growth inhibition, 5 days of incubation, MTT assay; read-out: IC50 [nM] MCF-7. As for the experimental part:
as §1

Assay [5] has as its target T2, nuclear export receptor Crm1 (Homo sapiens, UniProt O14980).
T2 construct: HeLa cells stably expressing a fluorescent translocation biosensor (HeLaRevBio); endogenous in cells; host or cells: HeLa (HeLaRevBio in A7; HeLa in A8)
Put plainly: Pull-down with ratjadone-biotin, LC-MS proteomic target identification. Format: binding. The conditions noted are these: HeLa cells, 0.1 μg/ml, 5h; streptavidin sepharose; 79 proteins identified. As for the experimental part: Binding of Ratjadone to the nuclear export receptor Crm1 was shown in a chemical pull down. HeLa cells were treated with ratjadone-biotin, ratjadone or both at 0.1 μg/ml final concentration for 5h. Cells were detached by scraping, washed twice in PBS and lysed in MPER-buffer (Thermo Fisher, Waltham, USA) supplemented with complete protease inhibitor (Roche, Mannheim, Germany). After 5 min incubation on ice the lysate was centrifuged (20 min, 13000 rpm, 4° C.) and the supernatant was incubated with streptavidin sepharose high performance (GE healthcare, Freiburg, Germany) overnight at 4° C. The next day beads were washed twice with PBS and resuspended in elution buffer (Roth) and heated to 95° C. for 10 min. 5% were tested on WesternBlot with a biotin-specific antibody (see FIG. 11). The eluate was given to the proteomics platform (J. Wissing) for identification of proteins.

T1 sequence (O14980 whole entry): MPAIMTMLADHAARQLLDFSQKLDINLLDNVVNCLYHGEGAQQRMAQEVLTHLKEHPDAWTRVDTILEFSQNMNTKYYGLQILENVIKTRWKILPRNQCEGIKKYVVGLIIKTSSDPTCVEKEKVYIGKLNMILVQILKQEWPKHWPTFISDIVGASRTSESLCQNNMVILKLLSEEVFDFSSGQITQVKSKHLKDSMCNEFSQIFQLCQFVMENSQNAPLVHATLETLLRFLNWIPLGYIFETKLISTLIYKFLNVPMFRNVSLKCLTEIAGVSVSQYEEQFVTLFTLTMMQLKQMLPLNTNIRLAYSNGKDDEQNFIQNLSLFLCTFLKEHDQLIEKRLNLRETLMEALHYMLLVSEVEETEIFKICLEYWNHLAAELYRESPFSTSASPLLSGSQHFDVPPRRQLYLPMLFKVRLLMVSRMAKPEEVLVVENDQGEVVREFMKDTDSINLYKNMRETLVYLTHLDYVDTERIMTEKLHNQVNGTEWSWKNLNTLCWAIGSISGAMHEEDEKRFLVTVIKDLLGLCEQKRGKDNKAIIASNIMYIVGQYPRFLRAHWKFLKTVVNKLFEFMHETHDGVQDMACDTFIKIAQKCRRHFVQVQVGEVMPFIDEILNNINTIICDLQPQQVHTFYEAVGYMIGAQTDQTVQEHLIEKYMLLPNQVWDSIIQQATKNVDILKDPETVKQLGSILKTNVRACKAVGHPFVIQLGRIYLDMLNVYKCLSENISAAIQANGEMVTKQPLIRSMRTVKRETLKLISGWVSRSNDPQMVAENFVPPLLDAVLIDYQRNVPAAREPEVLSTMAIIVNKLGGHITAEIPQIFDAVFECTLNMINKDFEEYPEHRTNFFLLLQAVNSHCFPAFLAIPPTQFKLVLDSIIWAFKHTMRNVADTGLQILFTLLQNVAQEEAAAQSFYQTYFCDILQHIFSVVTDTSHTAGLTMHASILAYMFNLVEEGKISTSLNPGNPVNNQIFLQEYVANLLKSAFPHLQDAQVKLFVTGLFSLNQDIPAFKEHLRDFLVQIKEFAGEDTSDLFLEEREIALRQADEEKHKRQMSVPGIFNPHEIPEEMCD
T2 sequence (O14980 whole entry): as above

Consider `C/C=C/[C@@H]1O[C@H]([C@H](O)/C=C/C=C(\C)C[C@@H](C)/C=C(C)\C=C\[C@H]2CC=CC(=O)O2)CC(=O)[C@@H]1C` [19-Oxo-Ratjadone 9, (R)-6-((1E,3Z,5R,7E,9E,9E,11R)-11-hydroxy-3,5,7-trimethyl-11-((2S,5R,6S)-5-methyl-4-oxo-6-((E)-prop-1-en-1-yl)tetrahydro-2H-pyran-2-yl)undeca-1,3,7,9-tetraen-1-yl)-5,6-dihydro-2H-pyran-2-one], for which the IC50 in assay [1] was 0.36 nM; on CRM1 (HeLa cells stably expressing translocation biosensor, 1h of incubation, read-out: IC50 [nM] CRM1 (nuclear export inhibition)) it was 13.3 nM; in the assay on L-929 (DSMZ ACC 2) cells, 24.3 nM; in assay [2], 0.1 nM; in assay [3], 0.16 nM; in assay [4] it was 0.48 nM.

For `C/C=C/[C@@H]1O[C@H]([C@H](/C=C/C=C(\C)C[C@@H](C)/C=C(C)\C=C\[C@H]2CC=CC(=O)O2)NC(=O)OCCc2cn(CCOCCOCCOCCNC(=O)CCCC[C@@H]3SC[C@@H]4NC(=O)N[C@@H]43)nn2)C[C@@H](O)[C@@H]1C` [Biotin-PEG3-16S-Aminoratjadone, 2-(1-(13-oxo-17-((3aS,4S,6aR)-2-oxohexahydro-1H-thieno[3,4-d]imidazol-4-yl)-3,6,9-trioxa-12-azaheptadecyl)-1H-1,2,3-triazol-4-yl)ethyl ((1S,2E,4E,7R,8Z,10E)-1-((2S,4R,5S,6S)-4-hydroxy-5-methyl-6-((E)-prop-1-en-1-yl)tetrahydro-2H-pyran-2-yl)-5,7,9-trimethyl-11-((R)-6-oxo-3,6-dihydro-2H-pyran-2-yl)undeca-2,4,8,10-tetraen-1-yl)carbamate], the “proteins identified in the pull-down eluate” value in assay [5] is reported as “CRM1 having the highest area”. At CRM1, the concentration for half-maximal inhibition (IC50) stood at 152 nM.
